According to ChEMBL document CHEMBL1132606, “Use of a pharmacophore model for the design of EGFR tyrosine kinase inhibitors: isoflavones and 3-phenyl-4(1H)-quinolones” (J Med Chem, 1999):

Experiments:
[1] = molecular target: Protein kinase C alpha type (Homo sapiens, UniProt P17252); assay: Inhibition of Protein kinase C alpha
[2] = molecular target: T1, Epidermal growth factor receptor (Homo sapiens, UniProt P00533); assay: Inhibition of Epidermal growth factor receptor-dependent phosphorylation
T1 sequence (P00533 whole entry): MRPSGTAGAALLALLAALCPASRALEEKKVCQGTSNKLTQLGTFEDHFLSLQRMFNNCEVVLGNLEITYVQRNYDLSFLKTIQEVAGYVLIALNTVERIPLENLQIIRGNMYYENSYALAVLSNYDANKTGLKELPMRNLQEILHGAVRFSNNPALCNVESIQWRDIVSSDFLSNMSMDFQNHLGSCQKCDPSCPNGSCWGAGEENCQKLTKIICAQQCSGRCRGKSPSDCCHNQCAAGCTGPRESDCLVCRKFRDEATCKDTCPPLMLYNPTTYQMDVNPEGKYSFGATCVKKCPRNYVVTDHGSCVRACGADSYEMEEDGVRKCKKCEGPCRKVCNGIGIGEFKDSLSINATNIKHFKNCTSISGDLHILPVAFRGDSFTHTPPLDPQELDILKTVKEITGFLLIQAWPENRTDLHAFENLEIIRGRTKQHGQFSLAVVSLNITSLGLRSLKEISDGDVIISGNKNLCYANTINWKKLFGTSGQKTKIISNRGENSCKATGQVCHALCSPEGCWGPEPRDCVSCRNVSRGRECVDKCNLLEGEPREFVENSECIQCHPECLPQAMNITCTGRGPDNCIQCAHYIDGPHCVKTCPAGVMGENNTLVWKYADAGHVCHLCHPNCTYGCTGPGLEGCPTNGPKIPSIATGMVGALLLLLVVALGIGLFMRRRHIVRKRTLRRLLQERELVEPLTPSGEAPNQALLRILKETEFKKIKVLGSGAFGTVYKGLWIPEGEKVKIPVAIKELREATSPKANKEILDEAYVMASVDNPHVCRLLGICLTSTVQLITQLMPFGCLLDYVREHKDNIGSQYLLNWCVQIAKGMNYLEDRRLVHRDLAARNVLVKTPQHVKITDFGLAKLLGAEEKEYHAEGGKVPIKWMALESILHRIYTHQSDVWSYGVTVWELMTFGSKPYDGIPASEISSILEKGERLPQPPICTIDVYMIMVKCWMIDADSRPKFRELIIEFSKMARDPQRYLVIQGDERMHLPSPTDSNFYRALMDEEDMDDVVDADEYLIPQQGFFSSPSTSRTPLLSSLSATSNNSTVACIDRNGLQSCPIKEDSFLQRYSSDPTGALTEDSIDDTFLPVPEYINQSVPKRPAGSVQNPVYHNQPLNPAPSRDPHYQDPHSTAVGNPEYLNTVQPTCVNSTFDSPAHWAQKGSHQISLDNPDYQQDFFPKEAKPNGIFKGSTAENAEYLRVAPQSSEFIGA

[3] = molecular target: Tyrosine-protein kinase ABL (Homo sapiens, UniProt P00519+P42684); assay: Inhibition of v-Abl tyrosine kinase; type: protein assay
[4] = molecular target: Proto-oncogene tyrosine-protein kinase Src (Homo sapiens, UniProt P12931); assay: Inhibition of p60 c-Src tyrosine kinase
Chain of Proto-oncogene tyrosine-protein kinase Src (P12931 2-536 limits assumed): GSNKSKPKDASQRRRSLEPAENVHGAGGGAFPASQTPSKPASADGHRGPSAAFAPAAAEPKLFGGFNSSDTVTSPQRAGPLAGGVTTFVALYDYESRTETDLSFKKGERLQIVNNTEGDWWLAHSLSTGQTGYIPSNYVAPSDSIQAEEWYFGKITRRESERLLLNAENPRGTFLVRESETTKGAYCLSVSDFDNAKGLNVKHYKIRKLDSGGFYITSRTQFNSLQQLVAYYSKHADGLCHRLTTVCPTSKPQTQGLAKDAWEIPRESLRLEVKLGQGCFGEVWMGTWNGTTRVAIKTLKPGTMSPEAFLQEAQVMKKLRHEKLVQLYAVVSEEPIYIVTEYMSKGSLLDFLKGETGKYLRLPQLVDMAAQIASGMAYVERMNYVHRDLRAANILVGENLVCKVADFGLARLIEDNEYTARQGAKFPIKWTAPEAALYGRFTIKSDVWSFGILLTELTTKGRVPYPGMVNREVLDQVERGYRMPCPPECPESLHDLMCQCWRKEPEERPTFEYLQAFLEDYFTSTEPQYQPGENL

[5] = molecular target: Platelet-derived growth factor receptor (Homo sapiens, UniProt P09619+P16234); assay: Inhibition of Platelet-derived growth factor receptor-dependent phosphorylation; type: protein-complex assay
[6] = molecular target: T1, Epidermal growth factor receptor; assay: Inhibition of Epidermal growth factor receptor

Compound	IC50 [1]	IC50 [2]	IC50 [3]	IC50 [4]	IC50 [5]	IC50 [6]
Oc1cc(O)c2c(O)c(-c3cccc(Cl)c3)cnc2c1	> 100 µM	2 µM	> 10 µM	8 µM	> 10 µM	0.008 µM
COc1cc(O)c2c(O)c(-c3cccc(Cl)c3)cnc2c1	> 100 µM	6 µM	> 100 µM	> 100 µM	> 10 µM	0.038 µM
COc1cc(O)c2c(=O)c(-c3cccc(Cl)c3)coc2c1	> 100 µM	> 100 µM	> 100 µM	> 100 µM	> 10 µM	1.27 µM
O=c1c(-c2cccc(Cl)c2)coc2cc(O)ccc12						58.8 µM
Oc1c(-c2cccc(Cl)c2)cnc2ccccc12						> 100 µM
COc1cc(O)c2c(=O)c(-c3cccc(Cl)c3)cn(CCc3ccccc3)c2c1		1.5 µM			> 10 µM	4 µM
COc1cc(O)c2c(=O)c(-c3cccc(Cl)c3)cn(C)c2c1	> 100 µM	3 µM	> 10 µM	> 10 µM	> 10 µM	0.17 µM
O=c1c(-c2cccc(Cl)c2)coc2cc(O)cc(O)c12	> 100 µM	12 µM	20 µM	> 100 µM	> 10 µM	0.095 µM
COC(=O)Cn1cc(-c2cccc(Cl)c2)c(=O)c2c(O)cc(OC)cc21	> 100 µM		> 10 µM	> 10 µM	> 10 µM	
COc1cc(OC)c2c(=O)c(-c3cccc(Cl)c3)coc2c1		> 100 µM			> 10 µM	500 µM
O=c1c(-c2ccc(O)cc2)coc2cc(O)cc(O)c12 [GENISTEIN]	> 100 µM		> 10 µM	> 10 µM		
COc1cc2ncnc(Nc3cccc(Cl)c3)c2cc1OC [TYRPHOSTIN AG-1478]	> 100 µM			2.7 µM	> 10 µM	
